Assay results: patent publication US10329302B2, “Bicyclic-fused heteroaryl or aryl compounds” (Pfizer Inc., priority 2014, dated 2019)
Like-named read-outs stand apart in the source and are kept apart here.

Assays:
[1] = system: R848-induced TNFα production by human peripheral blood mononuclear cells (PBMCs); assay: R848 Induced TNFα in Human PBMC Assay; format: cell-based
[2] = biological target: human IRAK4 FL (Full Length) (Homo sapiens (Human), UniProt Q9NWZ3); assay: IRAK4 Enzymatic DELFIA Assay, Protocol A; format: biochemical; conditions: human IRAK4 FL, 0.6 mM ATP (KM); read-out: IRAK4 DELFIA Protocol A IC50
Sequence of human IRAK4 FL (Full Length) (Q9NWZ3 whole entry): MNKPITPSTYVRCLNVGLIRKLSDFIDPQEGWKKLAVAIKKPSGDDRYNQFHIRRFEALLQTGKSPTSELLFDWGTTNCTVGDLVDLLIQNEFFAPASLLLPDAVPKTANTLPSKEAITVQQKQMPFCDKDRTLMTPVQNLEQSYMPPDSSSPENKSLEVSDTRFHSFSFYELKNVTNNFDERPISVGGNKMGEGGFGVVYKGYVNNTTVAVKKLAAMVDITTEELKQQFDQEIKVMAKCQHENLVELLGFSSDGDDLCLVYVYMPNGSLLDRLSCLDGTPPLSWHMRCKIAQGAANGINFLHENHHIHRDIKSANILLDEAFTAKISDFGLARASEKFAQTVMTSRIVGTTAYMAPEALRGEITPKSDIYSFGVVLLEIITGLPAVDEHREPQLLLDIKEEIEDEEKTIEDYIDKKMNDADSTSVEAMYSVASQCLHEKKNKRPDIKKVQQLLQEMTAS

[3] = Homo sapiens, PBMC, 3 h, read-out: R848-induced TNFa PBMC IC50 (nM)
[4] = human PBMC, absence of serum, 3 hours, read-out: R848-induced TNFa PBMC IC50

SMILES | IC50 [1, 3] [nM] | IC50 [2] [nM] | IC50 [1, 4] [nM]
CCOc1cc2c(OC[C@H]3NC(=O)[C@@H](F)[C@H]3CC)nccc2cc1C(N)=O [Example 359, 7-ethoxy-1-{[(2S,3S,4S)-3-ethyl-4-fluoro-5-oxopyrrolidin-2-yl]methoxy}isoquinoline-6-carboxamide] | 3.9 | 0.4 | 
COC[C@H]1[C@H]2C(=O)N[C@H](COc3nccc4cc(C(N)=O)c(OC)cc34)[C@@H]12 [Example 314, 7-methoxy-1-{[(1S,2S,5S)-6-(methoxymethyl)-4-oxo-3-azabicyclo[3.1.0]hex-2-yl]methoxy}isoquinoline-6-carboxamide] | 8360 | 1980 | 
CC[C@@H]1[C@H](F)C(=O)N[C@@H]1COc1ncc(F)c2cc(C(N)=O)c(OC)cc12 [Example 360, 1-{[(2S,3S,4S)-3-ethyl-4-fluoro-5-oxopyrrolidin-2-yl]methoxy}-4-fluoro-7-methoxyisoquinoline-6-carboxamide] | 3.9 | 0.1 | 
COC[C@H]1[C@@H](COc2nccc3cc(C(N)=O)c(OC)cc23)NC(=O)C1(F)F [Example 347, 1-{[(2S,3R)-4,4-difluoro-3-(methoxymethyl)-5-oxopyrrolidin-2-yl]methoxy}-7-methoxyisoquinoline-6-carboxamide] | 27 | 0.6 | 
COc1cc2c(OC[C@@H]3C[C@@H](F)C(=O)N3)nccc2cc1C(N)=O [Example 253, 1-{[(2S,4R)-4-fluoro-5-oxopyrrolidin-2-yl]methoxy}-7-methoxyisoquinoline-6-carboxamide] | 122 | 2.6 | 
COC[C@@H]1[C@H]2C(=O)N[C@H](COc3nccc4cc(C(N)=O)c(OC)cc34)[C@@H]12 [Example 313, 7-methoxy-1-{[(1S,2S,5S)-6-(methoxymethyl)-4-oxo-3-azabicyclo[3.1.0]hex-2-yl]methoxy}isoquinoline-6-carboxamide] | 1590 | 210 | 
COc1cc2c(OC[C@@H]3C[C@@H](OC)C(=O)N3)cccc2cc1C(N)=O [Example 232, 3-methoxy-5-{[(2S,4R)-4-methoxy-5-oxopyrrolidin-2-yl]methoxy}naphthalene-2-carboxamide] | 261 | 20 | 
COc1cc2c(OC[C@@H]3CC(F)(F)C(=O)N3)nccc2cc1C(N)=O [Example 146, 1-{[(2S)-4,4-difluoro-5-oxopyrrolidin-2-yl]methoxy}-7-methoxyisoquinoline-6-carboxamide] | 15 | 0.2 | 
CC(C)Oc1cc2c(OC[C@@H]3CCC(=O)N3C)nccc2cc1C(N)=O [Example 180, 1-{[(2S)-1-methyl-5-oxopyrrolidin-2-yl]methoxy}-7-(propan-2-yloxy)isoquinoline-6-carboxamide] | 2560 | 1790 | 
CC[C@@H]1[C@H](F)C(=O)N[C@@H]1COc1nccc2cc(C(N)=O)c(OC(C)C)cc12 [Example 358, 1-{[(2S,3S,4S)-3-ethyl-4-fluoro-5-oxopyrrolidin-2-yl]methoxy}-7-(propan-2-yloxy)isoquinoline-6-carboxamide] | 1.3 | 0.4 | 
CC(C)Oc1cc2c(OC[C@H]3NC(=O)[C@H](F)[C@H]3C)nccc2cc1C(N)=O [Example 170, 1-{[(2S,3S,4R)-4-fluoro-3-methyl-5-oxopyrrolidin-2-yl]methoxy}-7-(propan-2-yloxy)isoquinoline-6-carboxamide] | 41 | 0.8 | 
CC[C@H]1[C@@H](COc2nccc3cc(C(N)=O)c(OC)cc23)NC(=O)[C@@H]1OC [Example 343, 1-{[(2S,3S,4R)-3-ethyl-4-methoxy-5-oxopyrrolidin-2-yl]methoxy}-7-methoxyisoquinoline-6-carboxamide] | 408 | 41 | 
COc1cc2c(OC[C@H]3NC(=O)O[C@@H]3C)cccc2cc1C(N)=O [Example 228, 3-methoxy-5-{[(4R,5R)-5-methyl-2-oxo-1,3-oxazolidin-4-yl]methoxy}naphthalene-2-carboxamide] | 118 | 4.2 | 
CC(C)Oc1cc2c(OC[C@H]3NC(=O)[C@@H]4C[C@H]34)nccc2cc1C(N)=O [Example 174, 1-{[(1S,2S,5R)-4-oxo-3-azabicyclo[3.1.0]hex-2-yl]methoxy}-7-(propan-2-yloxy)isoquinoline-6-carboxamide] | 126 | 3.1 | 
COc1cc2c(OC[C@H]3NC(=O)[C@H]4[C@@H]3C4(C)C)nccc2cc1C(N)=O [Example 263, 1-{[(1R,2S,5S)-6,6-dimethyl-4-oxo-3-azabicyclo[3.1.0]hex-2-yl]methoxy}-7-methoxyisoquinoline-6-carboxamide] | 496 | 80 | 
COc1cc2c(OC[C@@H]3C[C@](C)(F)C(=O)N3)nccc2cc1C(N)=O [Example 177, 1-{[(2S,4S)-4-fluoro-4-methyl-5-oxopyrrolidin-2-yl]methoxy}-7-methoxyisoquinoline-6-carboxamide] | 43 | 3.8 | 
CC[C@]1(F)C[C@@H](COc2nccc3cc(C(N)=O)c(OC)cc23)NC1=O [Example 257, 1-{[(2S,4S)-4-ethyl-4-fluoro-5-oxopyrrolidin-2-yl]methoxy}-7-methoxyisoquinoline-6-carboxamide] | 60 | 6.8 | 

SMILES | IC50 [1, 3] [nM] | IC50 [2] [nM] | IC50 [1, 4] [nM]
CC[C@@]1(F)C[C@@H](COc2nccc3cc(C(N)=O)c(OC(C)C)cc23)NC1=O [Example 132, 1-{[(2S,4R)-4-ethyl-4-fluoro-5-oxopyrrolidin-2-yl]methoxy}-7-(propan-2-yloxy)isoquinoline-6-carboxamide] | 1180 | 188 | 
COc1cc2c(OC[C@@H]3C[C@@](F)(CCF)C(=O)N3)ccnc2cc1C(N)=O [Example 274, 4-{[(2S,4R)-4-fluoro-4-(2-fluoroethyl)-5-oxopyrrolidin-2-yl]methoxy}-6-methoxyquinoline-7-carboxamide] | 748 | 2.2 | 
CC[C@]1(O)[C@H](F)C(=O)N[C@@H]1COc1nccc2cc(C(N)=O)c(OC)cc12 [Example 196, 1-{[(2R,3R,4S)-3-ethyl-4-fluoro-3-hydroxy-5-oxopyrrolidin-2-yl]methoxy}-7-methoxyisoquinoline-6-carboxamide] |  |  | 11
COC[C@]1(F)C[C@@H](COc2nccc3cc(C(N)=O)c(OC)cc23)NC1=O [Example 292, 1-{[(2S,4R)-4-fluoro-4-(methoxymethyl)-5-oxopyrrolidin-2-yl]methoxy}-7-methoxyisoquinoline-6-carboxamide] | 3140 |  | 
CCOc1cc2c(OC[C@@H]3C[C@@](F)(CF)C(=O)N3)ccnc2cc1C(N)=O [Example 293, 6-ethoxy-4-{[(2S,4S)-4-fluoro-4-(fluoromethyl)-5-oxopyrrolidin-2-yl]methoxy}quinoline-7-carboxamide] | 462 |  | 
CCOc1cc2c(OC[C@H]3NC(=O)[C@@H](F)[C@H]3C)nccc2cc1C(N)=O [Example 283, 7-ethoxy-1-{[(2S,3S,4S)-4-fluoro-3-methyl-5-oxopyrrolidin-2-yl]methoxy}isoquinoline-6-carboxamide] | 27 |  | 
CC[C@@H]1[C@@H](COc2nccc3cc(C(N)=O)c(OC)cc23)NC(=O)[C@@H]1F [Example 346, 1-{[(2S,3R,4R)-3-ethyl-4-fluoro-5-oxopyrrolidin-2-yl]methoxy}-7-methoxyisoquinoline-6-carboxamide] |  |  | 150
CCOc1cc2c(OC[C@@H]3C[C@@](F)(CF)C(=O)N3)nccc2cc1C(N)=O [Example 294, 7-ethoxy-1-{[(2S,4S)-4-fluoro-4-(fluoromethyl)-5-oxopyrrolidin-2-yl]methoxy}isoquinoline-6-carboxamide] | 24 |  | 
CCC1C[C@@H](COc2nccc3cc(C(N)=O)c(OC(C)C)cc23)NC1=O (single isomer, unassigned) [Example 113] | 53 |  | 
COc1cc2c(OC[C@H]3NC(=O)[C@@H](F)[C@H]3C(C)O)nccc2cc1C(N)=O (stereo partly drawn) [Example 198, 1-{[(2S,3R,4S)-4-fluoro-3-(1-hydroxyethyl)-5-oxopyrrolidin-2-yl]methoxy}-7-methoxyisoquinoline-6-carboxamide] |  |  | 715
COc1cc2c(OC[C@@H]3C[C@@](F)(CO)C(=O)N3)cccc2cc1C(N)=O [Example 207, 5-{[(2S,4R)-4-fluoro-4-(hydroxymethyl)-5-oxopyrrolidin-2-yl]methoxy}-3-methoxynaphthalene-2-carboxamide] |  |  | 41
COc1cc2c(OC[C@@H]3CCCC(=O)N3)nccc2cc1C(N)=O [Example 302, 7-methoxy-1-{[(2S)-6-oxopiperidin-2-yl]methoxy}isoquinoline-6-carboxamide] | 1280 |  | 
COc1cc2c(OC[C@@H]3C[C@@](F)(CC(F)(F)F)C(=O)N3)cccc2cc1C(N)=O [Example 240, 5-{[(2S,4R)-4-fluoro-5-oxo-4-(2,2,2-trifluoroethyl)pyrrolidin-2-yl]methoxy}-3-methoxynaphthalene-2-carboxamide] |  |  | 24
COc1cc2c(OC[C@@H]3C[C@@H](C4(O)CCOCC4)C(=O)N3)nccc2cc1C(N)=O [Example 289, 1-{[(2S,4S)-4-(4-hydroxytetrahydro-2H-pyran-4-yl)-5-oxopyrrolidin-2-yl]methoxy}-7-methoxyisoquinoline-6-carboxamide] | 6270 |  | 
COc1cc2c(OC[C@@H]3C[C@](F)(CC(F)(F)F)C(=O)N3)cccc2cc1C(N)=O [Example 241, 5-{[(2S,4S)-4-fluoro-5-oxo-4-(2,2,2-trifluoroethyl)pyrrolidin-2-yl]methoxy}-3-methoxynaphthalene-2-carboxamide] |  |  | 5760
COc1cc2c(OC[C@@H]3NC(=O)C[C@@H]3C)nccc2cc1C(N)=O [Example 277, 7-methoxy-1-{[(2R,3S)-3-methyl-5-oxopyrrolidin-2-yl]methoxy}isoquinoline-6-carboxamide] | 4420 |  | 
